Results from patent US20250136574A1, “SELECTIVE AGENTS TARGETING MYCOBACTERIUM TUBERCULOSIS” (priority 2022, published 2025).
“And” between values parts separate entries of the source, which are not always exact repeats. Equal values may be shown once. Read-outs that look alike come from different tables or passages of the source. Marks after values point to notes of the source that are not given here.

Tests used:
[1] = test system: wild-type (WT) Mtb; type: cell-based, Mycobacterium tuberculosis
[2] = CC50 cytotoxicity, Promega CellTiter-Glo Luminescent Cell Viability Assay; type: cell-based, African green monkey; details: African green monkey, Vero cells; 72-hour incubation, CellTiter-Glo, n = 3
Method: (§1) Cytotoxicity assays were conducted to measure toxicity of compounds at single concentration in Vero TMPRSS2 cells by using quantitation of ATP to indicate metabolically active cells. Vero cells (derived from African Green Monkey kidney epithelial tissue) were grown in Dulbecco's Modified Eagle Medium (DMEM) supplemented with 10% fetal bovine serum (FBS), 10 mM HEPES buffered saline, and 2 mM L-glutamine. 5,000 cells per well were seeded into a 96-well plate containing two-fold titrations of compounds. The concentration of DMSO was maintained at 0.5% for all wells to avoid toxicity. The plates were incubated for 72 hours, at which point they were acclimatized to room temperature for 30 minutes. 25 μL of the substrate/buffer solution from the Promega CellTiter-Glo Luminescent Cell Viability Assay kit was added to each well. The plates were shaken at a low orbital speed for 3 minutes and let rest at room temperature for 10 minutes, after which luminescence was measured using a BioTek Synergy H1 Microplate Reader H1M. The positive control was defined as wells containing cells without compounds.
(§2) Percent viability was input into PRISM GraphPad to calculate CC50 values by plotting as a non-linear regression curve.
(§3) Given the toxicity of an initial hit compound in mammalian cells and the potential concern for toxicity more generally with nitro-containing drugs, the selected compounds were also examined for toxicity in a mammalian cell line using Promega's Cell Titer-Glo assay to assess cellular ATP levels as a read-out of viability. […] A selectivity index (SI) was then calculated for each compound by determining the ratio of the CC50 in Vero cells to the MABA IC50 in Mtb, where the larger the SI, the safer the compound is in eukaryotic cells relative to its effective dose. […] Therefore, not only were the SAR efforts successful in identifying compounds with increased potency against Mtb, but also, the toxicity concerns of the original hit compound were overcome.

[3] = test system: Vero cells; test: as above; type: cell-based, African green monkey; details: for selectivity index (SI): ratio of CC50 in Vero cells to MABA IC50 in Mtb; for CC50: 72-hour incubation, CellTiter-Glo, n = 3
Method: as §1, §2, §3

[4] = test system: wild-type (WT) Mtb Erdman strain; test: MABA, Mtb Erdman strain; type: cell-based; details: Mycobacterium tuberculosis
[5] = Plasma stability, human; details: n = 1
[6] = PBS solubility; details: highest concentration with no detectable precipitate; phosphate-buffered saline
[7] = Liver microsomal stability, human; details: human liver microsomes, n = 1
[8] = Liver microsomal stability, mouse; details: mouse liver microsomes, n = 1
[9] = Plasma stability, mouse; details: n = 1
[10] = test system: wild-type (WT) Mtb HN878 strain; test: MABA, Mtb HN878 strain; type: cell-based; details: Mycobacterium tuberculosis; read-out: IC50 ± S.D. (μM) HN878
[11] = test system: Vero TMPRSS2 cells; test: Cytotoxicity at single concentration, CellTiter-Glo ATP quantitation; type: cell-based, African Green Monkey; details: 50 uM, 72 hours
Method: as §1
Percent viability was calculated as follows: […]

[12] = read-out: IC50 S.D. (μM) Mtb Erdman strain
[13] = read-out: IC50 ± S.D. (μM) Erdman

CCCCCCC#Cc1cncc(-c2nnc(SC)n2C)c1
IC50 [1]: 48 µM

CCCCCCC#Cc1cncc(-c2nnc(SCc3cc(C(F)(F)F)cc(C(F)(F)F)c3)n2C)c1
IC50 [1]: > 200 µM

CCCCCCC#Cc1cncc(-c2nnc(SCc3ncc([N+](=O)[O-])n3C)n2C)c1
IC50 [1]: 94 µM

CCCCCCC#Cc1cncc(-c2nnc(SCCc3ccc(Cl)cc3)n2C)c1
IC50 [1]: 8.2 µM

CCCCCCC#Cc1cncc(-c2nnc(Sc3ccc(Cl)cc3)n2C)c1
IC50 [1]: 13 µM

CCCCCCC#Cc1cncc(-c2nnc(SCc3ccc(F)c([N+](=O)[O-])c3)n2C)c1
IC50 [1]: 44 µM

CCCCCCC#Cc1cncc(-c2nnc(SCc3ccc(Cl)cc3[N+](=O)[O-])n2C)c1
IC50 [1]: > 200 µM

CCCCCCC#Cc1cncc(-c2nnc(SCc3cc([N+](=O)[O-])cc(C(F)(F)F)c3)n2C)c1
IC50 [1]: > 200 µM

CCCCCCC#Cc1cncc(-c2nnc(Sc3ccc([N+](=O)[O-])c4nonc34)n2C)c1
IC50 [1]: 27 µM

CCCCCCC#Cc1cncc(-c2nnc(SCc3ccc4nonc4c3)n2C)c1
IC50 [1]: > 200 µM

CCCCCCC#Cc1cncc(-c2nnc(SCc3ccc(Cl)cc3)n2CC)c1
IC50 [1]: 4.7 µM

CCCCCCC#Cc1cncc(-c2nnc(SCc3ccc(Cl)cc3)n2CCCC)c1
IC50 [1]: > 200 µM

CCCCCCC#Cc1cncc(-c2nnc(SCc3ccc(Cl)cc3)n2-c2ccccc2)c1
IC50 [1]: > 200 µM

CCCCCCC#Cc1cncc(-c2nnc(SCc3ccc(Cl)cc3)n2Cc2ccccc2)c1
IC50 [1]: > 200 µM

Cn1c(SCc2ccc(Cl)cc2)nnc1-c1cccnc1
IC50 [1]: > 200 µM

Cn1c(SCc2ccc(Cl)cc2)nnc1-c1cncc(Br)c1
IC50 [1]: > 200 µM

CCCC#Cc1cncc(-c2nnc(SCc3ccc(Cl)cc3)n2C)c1
IC50 [1]: 15 µM

CCCCCCC#Cc1ccc(-c2nnc(SCc3ccc(Cl)cc3)n2C)cn1
IC50 [1]: > 200 µM

CCCCCCC#Cc1cncc(-c2nnc(SCc3ccc(Cl)c(F)c3)[nH]2)c1
CC50 at 72 hour [2]: > 125 µM
selectivity index (SI) [3]: >23
IC50 [4, 12]: 5.4 ± 0.03 µM

CCCCCCC#Cc1cncc(-c2nnc(SCc3ccc([N+](=O)[O-])cc3[N+](=O)[O-])n2C)c1
CC50 at 72 hour [2]: 28 ± 1 µM
selectivity index (SI) [3]: 27
IC50 [4, 12]: 1.1 ± 0.1 µM

CCCCCCC#Cc1cncc(-c2nnc(SCc3cc([N+](=O)[O-])cc([N+](=O)[O-])c3)n2C2CC2)c1.Cl
plasma stability t1/2 (min), human [5]: >480; >480 min
PBS solubility [6]: 3.1 µM
liver microsomal stability t1/2 (min), human [7]: 3.0 min
liver microsomal stability t1/2 (min), mouse [8]: 5.9 min
plasma stability t1/2 (min), mouse [9]: >480; >480 min

CCCCCCC#Cc1cncc(-c2nnc(SCc3cc([N+](=O)[O-])cc([N+](=O)[O-])c3)n2C)c1 [3,5-dinitrobenzyl analog]
antimycobacterial activity ([1]; text b333, MABA): 0.5 µM

NNC(=O)c1ccncc1 [INH, isoniazid, reference compound]
IC50 [4, 13]: 0.18 ± 0.014 µM
IC50 [10]: 0.12 ± 0.00051 µM

CCCCCCC#Cc1cncc(-c2nnc(SCc3ccc(Cl)cc3)n2C)c1 [drawing 51]
IC50 [1]: 5.3 µM

CCCCCCC#Cc1cncc(-c2nnc(SCc3ccc(Cl)c(F)c3)n2C)c1 [drawing 52]
IC50 [1]: 4.1 µM

CCCCCCC#Cc1cncc(-c2nnc(SCc3ccc(Br)cc3)n2C)c1 [drawing 55 R = Br]
IC50 [1]: 4.6 µM

CCCCCCC#Cc1cncc(-c2nnc(SCc3ccc(C(F)(F)F)cc3)n2C)c1 [drawing 55 R = CF3]
IC50 [1]: 44 µM

CCCCCCC#Cc1cncc(-c2nnc(SCc3ccc(C#N)cc3)n2C)c1 [drawing 55 R = CN]
IC50 [1]: 8.9 µM

CCCCCCC#Cc1cncc(-c2nnc(SCc3ccc(F)cc3)n2C)c1 [drawing 55 R = F]
IC50 [1]: 6.9 µM

CCCCCCC#Cc1cncc(-c2nnc(SCc3ccc(OC)cc3)n2C)c1 [drawing 55 R = MeO]
IC50 [1]: 8.7 µM

CCCCCCC#Cc1cncc(-c2nnc(SCc3ccc(C)cc3)n2C)c1 [drawing 55 R = Me]
IC50 [1]: 6.1 µM

CCCCCCC#Cc1cncc(-c2nnc(SCc3ccc([N+](=O)[O-])cc3)n2C)c1 [drawing 55 R = NO2]
IC50 [1]: 5.9 µM

CCCCCCC#Cc1cncc(-c2nnc(SCc3ccc(-c4ccccc4)cc3)n2C)c1 [drawing 55 R = Ph]
IC50 [1]: 197 µM

CCCCCCC#Cc1cncc(-c2nnc(SCCn3c([N+](=O)[O-])cnc3C)n2C)c1 [drawing 58]
IC50 [1]: 22 µM

CCCCCCC#Cc1cncc(-c2nnc(SCc3ccc([N+](=O)[O-])o3)n2C)c1 [drawing 61]
IC50 [1]: 0.55 µM

CCCCCCC#Cc1cncc(-c2nnc(SCc3cccc(Cl)c3)n2C)c1 [drawing 64 R = Cl]
IC50 [1]: 15 µM

CCCCCCC#Cc1cncc(-c2nnc(SCc3ccc(Cl)c(Cl)c3)n2C)c1 [drawing 67]
IC50 [1]: 6.8 µM

CCCCCCC#Cc1cncc(-c2nnc(SCc3cc(F)cc(F)c3)n2C)c1 [drawing 69]
IC50 [1]: 8 µM

CCCCCCC#Cc1cncc(-c2nnc(SCc3ccc(Cl)cc3)n2C2CC2)c1 [drawing 77]
IC50 [1]: 3.3 µM

CCCCCCC#Cc1cncc(-c2nnc(SCc3ccc([N+](=O)[O-])o3)n2C2CC2)c1 [drawing 80]
IC50 [1]: < 0.78 µM

CCCCCCC#Cc1cccc(-c2nnc(SCc3ccc(Cl)cc3)n2C)c1 [drawing 84]
IC50 [1]: 8.5 µM

C#Cc1cncc(-c2nnc(SCc3ccc(Cl)cc3)n2C)c1 [drawing 87]
IC50 [1]: 86 µM

Cn1c(SCc2ccc(Cl)cc2)nnc1-c1cncc(C#Cc2ccccc2)c1 [drawing 88]
IC50 [1]: 4 µM

CCCCCCC#Cc1cncc(-c2nnc(SCc3ccc(Cl)cc3)n2C)c1 [drawing 92]
IC50 [4, 13]: 1.5 ± 0.19 µM
IC50 [10]: 0.85 ± 0.043 µM

CCCCCCC#Cc1cncc(-c2nnc(SCc3ccc(C#N)cc3)n2C)c1 [drawing 93]
IC50 [4, 13]: 5.3 ± 1.17 µM
IC50 [10]: 2.3 ± 0.2 µM

CCCCCCC#Cc1cncc(-c2nnc(SCc3ccc([N+](=O)[O-])cc3)n2C)c1 [drawing 94]
IC50 [4, 13]: 2.9 ± 0.45 µM
IC50 [10]: 1.3 ± 0.15 µM

CCCCCCC#Cc1cncc(-c2nnc(SCc3cc([N+](=O)[O-])cc([N+](=O)[O-])c3)n2C)c1 [drawing 95]
IC50 [4, 13]: 0.17 ± 0.016 µM
IC50 [10]: 0.061 ± 0.012 µM

CCCCCCC#Cc1cncc(-c2nnc(SCc3ccc(Cl)cc3)n2C)c1 [drawing 129]
CC50 at 72 hour [2]: 50 ± 5.5 µM
selectivity index (SI) [3]: 9.3
IC50 [4, 12]: 5.4 ± 0.5 µM

CCCCCCC#Cc1cncc(-c2nnc(SCc3ccc(C#N)cc3)n2C)c1 [drawing 130]
CC50 [3]: > 100 µM
selectivity index (SI) [3]: >3.7
IC50 [4, 12]: 27 ± 0.4 µM

CCCCCCC#Cc1cncc(-c2nnc(SCc3ccc([N+](=O)[O-])cc3)n2C)c1 [drawing 131]
CC50 at 72 hour [2]: 27 ± 5.4 µM
selectivity index (SI) [3]: 1.3
IC50 [4, 12]: 22 ± 13 µM

CCCCCCC#Cc1cncc(-c2nnc(SCc3cc([N+](=O)[O-])cc([N+](=O)[O-])c3)n2C)c1 [drawing 133]
CC50 [3]: > 100 µM
selectivity index (SI) [3]: >294
IC50 [4, 12]: 0.34 ± 0.01 µM

CCCCCCC#Cc1cncc(-c2nnc(SCc3ccc([N+](=O)[O-])o3)n2C)c1 [drawing 135]
CC50 at 72 hour [2]: 33 ± 2.9 µM
selectivity index (SI) [3]: 314
IC50 [4, 12]: 0.1 ± 0.01 µM

CCCCCCC#Cc1cncc(-c2nnc(SCc3ccc(Cl)cc3)n2C2CC2)c1 [drawing 136]
CC50 at 72 hour [2]: 25 ± 2.5 µM
selectivity index (SI) [3]: 4.8
IC50 [4, 12]: 5.1 ± 0.7 µM

CCCCCCC#Cc1cncc(-c2nnc(SCc3ccc([N+](=O)[O-])o3)n2C2CC2)c1 [drawing 137]
CC50 at 72 hour [2]: 7.8 ± 0.48 µM
selectivity index (SI) [3]: 165
IC50 [4, 12]: 0.05 ± 0.003 µM

Cn1c(SCc2ccc(Cl)cc2)nnc1-c1cncc(C#Cc2ccccc2)c1 [drawing 138]
CC50 [3]: > 100 µM
selectivity index (SI) [3]: >46
IC50 [4, 12]: 2.2 ± 0.4 µM

CCCCCCC#Cc1cncc(-c2nnc(SCc3ccc([N+](=O)[O-])o3)n2C)c1 [nitrofuran bearing analog]
antimycobacterial activity (in words) ([1]; text b333-b334, MABA): most potent

COC(=O)[C@H]1[C@H]2C[C@@H]3c4[nH]c5cc(OC)ccc5c4CCN3C[C@H]2C[C@@H](OC(=O)c2cc(OC)c(OC)c(OC)c2)[C@@H]1OC [reserpine, reference compound]
PBS solubility (μM) [6]: 7.8^[d] μM

Capuramycin B [reference compound]
% Cell Viability Average [11]: 92.07% and 91.55% and 94.73%
% Cell Viability Replicate 1 [11]: 90.49% and 90.38% and 96.50%
% Cell Viability Replicate 2 [11]: 93.64% and 92.73% and 92.96%
